Experimental data published in US20180110824A1, “Macrocyclic Modulators of the Ghrelin Receptor” (Ocera Therapeutics, Inc., priority 2016, published 2018).
Where two headings read alike, the source gives them in different places.

Columns and labels:
[1] = target: T1, human growth hormone secretagogue receptor (hGHS-R1a) (Homo sapiens, UniProt Q92847); assay: Competitive radioligand binding assay (ghrelin receptor), [125I]-ghrelin displacement on GHS-R/HEK 293 membranes
T1 construct: purchased PerkinElmer BioSignal #RBHGHSM; host or cells: HEK-293, stably transfected
T1 sequence (Q92847 whole entry): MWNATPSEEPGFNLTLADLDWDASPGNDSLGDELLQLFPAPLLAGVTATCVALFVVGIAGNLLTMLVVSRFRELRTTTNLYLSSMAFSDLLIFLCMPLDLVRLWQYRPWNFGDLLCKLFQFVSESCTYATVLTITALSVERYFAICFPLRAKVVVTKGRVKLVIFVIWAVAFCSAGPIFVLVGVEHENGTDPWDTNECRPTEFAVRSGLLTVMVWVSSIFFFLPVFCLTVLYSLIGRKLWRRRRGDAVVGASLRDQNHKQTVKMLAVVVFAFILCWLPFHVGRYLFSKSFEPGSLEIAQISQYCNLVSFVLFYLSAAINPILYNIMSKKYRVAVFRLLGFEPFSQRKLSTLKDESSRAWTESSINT

[2] = target: T2, human ghrelin receptor (hGHS-R1a) (Homo sapiens, UniProt Q92847); assay: Aequorin functional assay (ghrelin receptor), CHO-K1 cells co-expressing Gα16 and aequorin; type: cell-based; details: Table 4; functional (agonist) activity; TFA salts unless otherwise noted; read-out: EC50
T2 construct: host or cells: CHO-K1 co-expressing Gα16 and mitochondrially targeted aequorin
T2 sequence (Q92847 whole entry): as above
Protocol: This cell line is typically constructed by transfection of the human ghrelin receptor into CHO-K1 cells co-expressing Gα16 and the mitochondrially targeted Aequorin (Ref #ES-WT-A5). • 1. […] Assay buffer: DMEM (Dulbecco's Modified Eagles Medium) containing 0.1% BSA (bovine serum albumin; pH 7.0). • 3. Coelenterazine (Molecular Probes, Leiden, The Netherlands). • Final test concentrations (N=8) for compounds of the invention: 10, 1, 0.3, 0.1, 0.03, 0.01, 0.003, 0.001 μM.
Stock solutions of compounds (10 mM in 100% DMSO) were provided frozen on dry ice and stored at −20° C. prior to use. […] Assay plates were then prepared by appropriate dilution in DMEM medium containing 0.1% BSA. Under these conditions, the maximal final DMSO concentration in the assay was <0.6%.
AequoScreen™ cells were collected from culture plates with Ca^2+ and Mg^2+-free phosphate buffered saline (PBS) supplemented with 5 mM EDTA, pelleted for 2 min at 1000×g re-suspended in DMEM—Ham's F12 containing 0.1% BSA at a density of 5×10^6 cells/mL, and incubated O/N at rt in the presence of 5 μM coelenterazine. After loading, cells were diluted with assay buffer to a concentration of 5×10^5 cells/mL.
For agonist testing, 50 μL of the cell suspension was mixed with 50 μL of the appropriate concentration of test compound or ghrelin (reference agonist) in 96-well plates (duplicate samples). Ghrelin (reference agonist) was tested at several concentrations concurrently with the test compounds in order to validate the experiment. The emission of light resulting from receptor activation in response to ghrelin or test compounds was recorded using the Hamamatsu FDSS 6000 reader (Hamamatsu Photonics K.K., Japan).
Results were expressed as Relative Light Units (RLU). […] EC50, Hill slope and % Emax values are reported.
• 1. Assay performed on CHO-K1 cells expressing the transfected, cloned human ghrelin receptor (hGHS-R1a) and Gα16. • 2. Suspended cells incubated O/N with coelenterazine. • 3. Stimulation of hGHS-R1a activates Gα16, causing […] Ca2+ release which ultimately leads to the oxidation of coelenterazine and the emission of a quantitative luminescent signal. • 4. Ghrelin was used as the positive control. • 5.

[3] = target: motilin receptor (Homo sapiens, UniProt O43193); assay: Selectivity for the ghrelin receptor versus the motilin receptor; type: binding
Chain of motilin receptor (O43193 whole entry, species assumed): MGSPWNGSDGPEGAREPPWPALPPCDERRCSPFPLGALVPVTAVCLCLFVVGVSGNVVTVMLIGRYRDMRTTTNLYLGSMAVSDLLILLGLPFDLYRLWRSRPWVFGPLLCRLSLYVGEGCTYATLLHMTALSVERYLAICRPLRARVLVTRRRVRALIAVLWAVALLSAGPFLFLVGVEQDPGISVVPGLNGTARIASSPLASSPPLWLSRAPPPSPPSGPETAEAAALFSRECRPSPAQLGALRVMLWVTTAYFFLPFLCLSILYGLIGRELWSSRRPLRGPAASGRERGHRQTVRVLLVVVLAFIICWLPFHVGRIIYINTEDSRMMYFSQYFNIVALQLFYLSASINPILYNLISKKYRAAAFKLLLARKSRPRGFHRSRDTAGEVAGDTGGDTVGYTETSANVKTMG
From the text: The level of agonist activity and selectivity for representative compounds of the invention are shown below in Table 4.

[4] = Table 3B, binding activity at the human ghrelin receptor, read-out: Ki
[5] = Table 4, TFA salts unless otherwise noted, read-out: Ki
[6] = Binding activity at the human ghrelin receptor, [125I]-ghrelin displacement, read-out: Ki
[7] = [125I]-ghrelin displacement, GHS-R/HEK 293 membranes, class symbols, read-out: Binding Activity at the Human Ghrelin Receptor (Ki)

Row | SMILES | Ki [1, 5] [nM] | EC50 [2] [nM] | Selectivity [3] | Ki [1, 6] [nM] | other results
1 | C[C@@H]1C(=O)N[C@H](Cc2ccc(F)cc2)C(=O)NCCCc2ncccc2OCCN[C@@H](C2CC2)C(=O)N1C [306a] | 10 to 100 | 1 to 100 | 714/1 |  | Ki [1, 4]: 10 to 100 nM
2 | CCC(C)[C@@H]1NCCOc2ccccc2/C=C/CNC(=O)[C@H](Cc2cccc(Cl)c2)NC(=O)C2(CCCC2)NC1=O (stereo partly drawn) [345a] | 10 to 100 | 1 to 100 | >159/1 |  | Ki [1, 4]: 100 to 1000 nM
3 | CCCC[C@@H]1NCCOc2ccccc2CCCNC(=O)[C@@H](Cc2ccccc2)NC(=O)CN(C)C1=O [Compound 1] | 10 to 100 | 100 to 1000 | 142/1 | 10 to 100 | 
4 | CCCC1NCCOc2ccccc2CCCNC(=O)C(Cc2ccccc2)NC(=O)C(C)N(C)C1=O (stereo not drawn) [Compound 4] |  |  | 3012/1 |  | 
5 | CCC[C@@H]1NCCOc2ccccc2CCCNC(=O)[C@@H](Cc2c[nH]c3ccccc23)NC(=O)CN(C)C1=O [Compound 6] | 100 to 1000 | 1 to 100 | 71/1 | 100 to 1000 | 
6 | CC(C)C[C@@H]1NCCOc2ccccc2/C=C/CNC(=O)[C@H](Cc2ccccc2)NC(=O)C2(CCCC2)NC1=O [Compound 8] | 10 to 100 | 1 to 100 | 200/1 | 10 to 100 | 
7 | CC(C)[C@@H]1NCCOc2ccccc2CCCNC(=O)[C@H](Cc2ccccc2)NC(=O)C2(CCCC2)NC1=O [Compound 9] | 100 to 1000 | 100 to 1000 | 117/1 | 100 to 1000 | 
8 | CCC[C@@H]1NCCOc2ccccc2CCCNC(=O)[C@@H](Cc2ccccc2)NC(=O)CN(C)C1=O [Compound 10] | 10 to 100 | 1 to 100 | 304/1 | 10 to 100 | 
9 | CCC[C@@H]1NCCOc2ccccc2CCCNC(=O)[C@@H](Cc2ccc(O)cc2)NC(=O)CN(C)C1=O [compound 7] | 100 to 1000 | 1 to 100 | >100/1 | 100 to 1000 | 
10 | CCC(C)C1NCCOc2ccccc2CCCNC(=O)C(Cc2ccccc2)NC(=O)C(C)N(C)C1=O (stereo not drawn) [compound 15] |  |  | >1700/1 |  | 
11 | CC[C@@H](C)[C@@H]1NCCOc2ccccc2CCCNC(=O)[C@@H](Cc2ccccc2)NC(=O)[C@@H](C)N(C)C1=O [compound 16] |  |  | >2000/1 |  | 
12 | C[C@@H]1C(=O)N[C@H](Cc2ccccc2)C(=O)NCCCc2ccccc2OCCN[C@@H](C2CC2)C(=O)N1C [compound 17] | 0.1 to 10 | 1 to 100 | 2500/1 | 0.1 to 10 | 
13 | O=C1NC/C=C/c2ccccc2OCCNC2(CCCC2)C(=O)NC2(CCCC2)C(=O)N[C@H]1Cc1ccccc1 [compound 18] | 10 to 100 | 1 to 100 | 222/1 | 10 to 100 | Ki ([1]; Table 3C, read-out: Ki): 10 to 100 nM
14 | CC(C)C1NCCOc2ccccc2C=CCNC(=O)C(Cc2ccccc2)NC(=O)C(C)N(C)C1=O (stereo not drawn) [compound 19] |  |  | >1700/1 |  | 
15 | CC(C)C[C@@H]1NCCOc2ccccc2/C=C/CNC(=O)[C@H](Cc2ccccc2Cl)NC(=O)C2(CCCC2)NC1=O [compound 20] |  |  | 1044/1 |  | 
16 | CC(C)C[C@@H]1NCCOc2ccccc2/C=C/CNC(=O)[C@H](Cc2cccc(Cl)c2)NC(=O)C2(CCCC2)NC1=O [compound 21] | 0.1 to 10 | 1 to 100 | 1078/1 | 0.1 to 10 | 
17 | CCC(C)C1NCCOc2ccccc2CCCNC(=O)C(Cc2cccc(Cl)c2)NC(=O)C(C)N(C)C1=O (stereo not drawn) [compound 24] |  |  | 3039/1 |  | 
18 | CCC(C)C1NCCOc2ccccc2CCCNC(=O)C(Cc2ccc(F)cc2)NC(=O)C(C)N(C)C1=O (stereo not drawn) [compound 26] | 0.1 to 10 | 1 to 100 | >7700/1 | 0.1 to 10 | 
19 | CCC(C)C1NCCOc2ccccc2CCCNC(=O)C(Cc2ccc3ccccc3c2)NC(=O)C(C)N(C)C1=O (stereo not drawn) [compound 31] |  |  | 4900/1 |  | 
20 | CCC(C)C1NCCOc2ccccc2CCCNC(=O)C(Cc2cccs2)NC(=O)C(C)N(C)C1=O (stereo not drawn) [compound 34] |  |  | >1000/1 |  | 
21 | CCCC1NCCOc2ccccc2C=CCNC(=O)C(Cc2ccccc2)NC(=O)C(C)N(C)C1=O (stereo not drawn) [compound 39] |  |  | 3400/1 |  | 
22 | CCC(C)C1NCCOc2ccccc2C=CCNC(=O)C(Cc2ccccc2)NC(=O)C(C)N(C)C1=O (stereo not drawn) [compound 40] |  |  | >3300/1 |  | 
23 | CCC(C)C1NCCOc2ccccc2CCCNC(=O)C(Cc2ccccc2)NC(=O)C(C)N(C)C1=O (stereo not drawn) [compound 42] |  |  | 4300/1 |  | 
24 | CCC(C)C1NCCOc2ccccc2CCCNC(=O)C(Cc2ccccc2)NC(=O)C(C)N(CC)C1=O (stereo not drawn) [compound 43] |  |  | 3700/1 |  | 
25 | C[C@@H]1C(=O)N[C@H](Cc2ccc(O)c(C(C)(C)C)c2)C(=O)NCCCc2ccccc2OCCN[C@@H](C2CC2)C(=O)N1C [compound 311] | 10 to 100 |  | 21/1 |  | Ki [1, 4]: 10 to 100 nM

The next lines start with results.

Row | Ki [1, 5] [nM] | EC50 [2] [nM] | Selectivity [3] | Ki [1, 6] [nM] | SMILES | other results
26 | 100 to 1000 | 1 to 100 |  | 100 to 1000 | CC(C)C[C@@H]1NCCOc2ccccc2/C=C/CNC(=O)[C@H](CC(C)C)NC(=O)C2(CCCC2)NC1=O [compound 47] | 
27 | 10 to 100 | 100 to 1000 |  | 100 to 1000 | CC(C)C[C@@H]1NCCOc2ccccc2CCCNC(=O)[C@@H](Cc2ccccc2)NC(=O)C2(CCCC2)NC1=O [compound 97] | 
28 | 10 to 100 | 100 to 1000 |  | 100 to 1000 | CC(C)C[C@@H]1NCCOc2ccccc2CCCNC(=O)[C@H](Cc2ccccc2)NC(=O)C2(CC2)NC1=O [compound 111] | 
29 | 100 to 1000 | 100 to 1000 |  | 100 to 1000 | CC(C)[C@@H]1NCCOc2ccccc2/C=C/CNC(=O)[C@H](Cc2ccccc2)NC(=O)C2(CCOCC2)NC1=O [compound 140] | 
30 | 10 to 100 | 1 to 100 |  |  | COc1ccc(C[C@@H]2NC(=O)C3(CCCC3)NC(=O)[C@H](CC(C)C)NCCOc3ccccc3/C=C/CNC2=O)cc1 [compound 156] | Ki [1, 7]: 10 to 100 nM
31 |  |  | 105/1 |  | CCC(C)C1NCCOc2ccccc2CCCNC(=O)C(CC(C)C)NC(=O)C(C)N(C)C1=O (stereo not drawn) [compound 176] | 
32 | 10 to 100 | > 1000 |  |  | C[C@@H]1C(=O)N[C@H](Cc2ccccc2)C(=O)NCCCc2ccccc2OCCN2CCCC[C@H]2C(=O)N1C [compound 226] | Ki ([1]; Table 3E, read-out: Ki): 10 to 100 nM; Ki [1, 7]: 10 to 100 nM
33 | 0.1 to 10 | 1 to 100 |  |  | C[C@@H]1C(=O)N[C@H](Cc2ccc(Cl)cc2)C(=O)NCCCc2ccccc2OCCN[C@@H](C2CC2)C(=O)N1C [compound 299] | Ki [1, 4]: 0.1 to 10 nM
34 | 0.1 to 10 | 1 to 100 |  |  | C[C@@H]1C(=O)N[C@H](Cc2c(F)c(F)c(F)c(F)c2F)C(=O)NCCCc2ccccc2OCCN[C@@H](C2CC2)C(=O)N1C [compound 318] | Ki [1, 4]: 0.1 to 10 nM
35 | 0.1 to 10 | 1 to 100 |  |  | C[C@@H]1C(=O)N[C@H](Cc2ccc(C(F)(F)F)cc2)C(=O)NCCCc2ccccc2OCCN[C@@H](C2CC2)C(=O)N1C [compound 322] | Ki [1, 4]: 0.1 to 10 nM
36 |  |  | 346/1 |  | CC1(C)NC(=O)C2(CCCC2)NCCOc2ccccc2/C=C/CNC(=O)[C@H](Cc2cccc(Cl)c2)NC1=O [compound 334] | 
37 | 10 to 100 | 1 to 100 |  |  | C[C@@H]1C(=O)N[C@H](Cc2ccc(F)cc2)C(=O)NCC#Cc2ccccc2OCCN[C@@H](C2CC2)C(=O)N1C [compound 354] | Ki [1, 4]: 10 to 100 nM
38 | 100 to 1000 |  | 35/1 |  | CC[C@H](C)[C@@H]1NCCCCCCCCNC(=O)[C@H](Cc2cccc(Cl)c2)NC(=O)C2(CCCC2)NC1=O [compound 363] | Ki [1, 4]: 100 to 1000 nM
39 | 10 to 100 | 1 to 100 |  |  | CC1CNC(C2CC2)C(=O)N(C)C(C)C(=O)NC(Cc2ccc(F)cc2)C(=O)NCCCc2ccccc2O1 (stereo not drawn) [compound 367] | Ki [1, 4]: 10 to 100 nM
40 |  |  | 400/1 |  | CCC(C)C1NCCOc2ccccc2C2CC2CNC(=O)C(Cc2cccc(Cl)c2)NC(=O)C2(CCCC2)NC1=O (stereo not drawn) [compound 388] | 
41 |  |  | 1700/1 |  | CC1COc2ccccc2CCCNC(=O)C(Cc2ccc(F)cc2)NC(=O)C(C)N(C)C(=O)C(C2CC2)N1 (stereo not drawn) [compound 394] | 
